Values quoted from earlier work, collected in publication doi:10.1101/2024.08.20.608791v1 (bioRxiv, 2024).

Conditions: <LOQ

| Compound | solubility in water (in words) |
| --- | --- |
| bivalirudin | practically insoluble in water |
| quinupristin | practically insoluble in water |
| COC[C@H]1C[C@@H](c2ncc(-c3ccc4c(c3)COc3cc5c(ccc6nc([C@@H]7CC[C@H](C)N7C(=O)[C@@H](NC(=O)OC)C(C)C)[nH]c65)cc3-4)[nH]2)N(C(=O)[C@H](NC(=O)OC)c2ccccc2)C1 [velpatasvir] | practically insoluble in water |
| CC1(C)CCC(CN2CCN(c3ccc(C(=O)NS(=O)(=O)c4ccc(NCC5CCOCC5)c([N+](=O)[O-])c4)c(Oc4cnc5[nH]ccc5c4)c3)CC2)=C(c2ccc(Cl)cc2)C1 [Venetoclax] | practically insoluble in water |
| CC[C@H]1OC(=O)[C@H](C)[C@@H](O[C@H]2C[C@@](C)(OC)[C@@H](O)[C@H](C)O2)[C@H](C)[C@@H](O[C@@H]2O[C@H](C)C[C@H](N(C)C)[C@H]2O)[C@](C)(O)C[C@@H](C)CN(C)[C@H](C)[C@@H](O)[C@]1(C)O [Azithromycin] | practically insoluble in water |
| CO[C@H]1/C=C/O[C@@]2(C)Oc3c(C)c(O)c4c(O)c(c5c(nc6cc(C)ccn65)c4c3C2=O)NC(=O)/C(C)=C\C=C\[C@H](C)[C@H](O)[C@@H](C)[C@@H](O)[C@@H](C)[C@H](OC(C)=O)[C@@H]1C [rifaximin] | practically insoluble in water |
| anidulafungin | practically insoluble in water |
| COC(=O)N[C@H](C(=O)N1CCC[C@H]1c1nc(-c2ccc3c(c2)O[C@@H](c2ccccc2)n2c-3cc3cc(-c4c[nH]c([C@@H]5CCCN5C(=O)[C@@H](NC(=O)OC)C(C)C)n4)ccc32)c[nH]1)C(C)C [elbasvir] | practically insoluble in water |
| CO[C@H]1C[C@@H]2CC[C@@H](C)[C@@](O)(O2)C(=O)C(=O)N2CCCC[C@H]2C(=O)O[C@H]([C@H](C)C[C@@H]2CC[C@@H](OP(C)(C)=O)[C@H](OC)C2)CC(=O)[C@H](C)/C=C(\C)[C@@H](O)[C@@H](OC)C(=O)[C@H](C)C[C@H](C)/C=C/C=C/C=C/1C [ridaforolimus] | practically insoluble in water |
| CO[C@H]1C[C@@H]2CC[C@@H](C)[C@@](O)(O2)C(=O)C(=O)N2CCCC[C@H]2C(=O)O[C@H]([C@H](C)C[C@@H]2CC[C@@H](OCCO)[C@H](OC)C2)CC(=O)[C@H](C)/C=C(\C)[C@@H](O)[C@@H](OC)C(=O)[C@H](C)C[C@H](C)/C=C/C=C/C=C/1C [everolimus] | practically insoluble in water |
| voclosporin | practically insoluble in water |

Conditions: as reported in Table 1 and text; source and method not stated

| Compound | log P |
| --- | --- |
| Neomycin | -6.6 |
| CN1Cc2c(Cl)cc(Cl)cc2[C@H](c2cccc(S(=O)(=O)NCCOCCOCCNC(=O)NCCCCNC(=O)NCCOCCOCCNS(=O)(=O)c3cccc([C@@H]4CN(C)Cc5c(Cl)cc(Cl)cc54)c3)c2)C1 [Tenapanor] | 4.8 |
| CC1(C)CCC(CN2CCN(c3ccc(C(=O)NS(=O)(=O)c4ccc(NCC5CCOCC5)c([N+](=O)[O-])c4)c(Oc4cnc5[nH]ccc5c4)c3)CC2)=C(c2ccc(Cl)cc2)C1 [Venetoclax] | 8.2 |
| CC(C)c1nc(CN(C)C(=O)N[C@H](C(=O)N[C@@H](Cc2ccccc2)C[C@H](O)[C@H](Cc2ccccc2)NC(=O)OCc2cncs2)C(C)C)cs1 [Ritonavir] | 5.2 |
| CC(C)[C@@H](C)[C@@]1(C)CC[C@]2(C)[C@H]3CC[C@@H]4[C@@]5(COC[C@@]4(C)[C@@H](OC[C@](C)(N)C(C)(C)C)[C@H](n4ncnc4-c4ccncc4)C5)C3=CC[C@@]2(C)[C@@H]1C(=O)O [Ibrexafungerp] | 5.8 |
| CCc1c(Cl)c(O)c(Cl)c(O)c1C(=O)O[C@H]1[C@H](O)[C@H](OC)[C@H](OC/C2=C\C=C\C[C@H](O)/C(C)=C/[C@H](CC)[C@@H](O[C@@H]3OC(C)(C)[C@@H](OC(=O)C(C)C)[C@H](O)[C@@H]3O)/C(C)=C/C(C)=C/C[C@@H]([C@@H](C)O)OC2=O)O[C@@H]1C [Fidaxomicin] | 6.4 |
| COC(=O)N[C@H](C(=O)N1CCC[C@H]1c1nc(-c2ccc(-c3ccc(-c4c[nH]c([C@@H]5CCCN5C(=O)[C@@H](NC(=O)OC)C(C)C)n4)cc3)cc2)c[nH]1)C(C)C [Daclatasvir] | 5.1 |
| CC[C@H]1OC(=O)[C@H](C)C(=O)[C@H](C)[C@@H](O[C@@H]2O[C@H](C)C[C@H](N(C)C)[C@H]2O)[C@](C)(OC/C=C/c2cnc3ccccc3c2)C[C@@H](C)C(=O)[C@H](C)[C@H]2NC(=O)O[C@@]21C [Cethromycin] | 5.4 |
| Teicoplanin A2 1 | -2.3 |
| COc1cc(F)c(C(C)C)cc1-c1ccc(C(F)(F)F)cc1CN1C(=O)O[C@H](c2cc(C(F)(F)F)cc(C(F)(F)F)c2)[C@@H]1C [anacetrapib] | 9.3 |
| COC(=O)N[C@H](C(=O)N1CCC[C@H]1C(=O)Nc1ccc([C@@H]2CC[C@@H](c3ccc(NC(=O)[C@@H]4CCCN4C(=O)[C@@H](NC(=O)OC)C(C)C)cc3)N2c2ccc(C(C)(C)C)cc2)cc1)C(C)C [Ombitasvir] | 5.7 |

Conditions: oral bioavailability, not marked as animal data; source not stated per compound

| Compound | observed F |
| --- | --- |
| desmopressin | 0.08-0.16% |
| cholecystokinin octapeptide | 0.2% |
| CC1(C)CC[C@]2(NC(=O)C(C)(F)F)CC[C@]3(C)[C@H](C(=O)C=C4[C@@]5(C)C=C(C#N)C(=O)C(C)(C)[C@@H]5CC[C@]43C)[C@@H]2C1 [omaveloxolone] | 8% |
| semaglutide | 0.8% |

Same assay, conditions: species not stated; quoted as comparison for micafungin

| Compound | F |
| --- | --- |
| anidulafungin | 2-7% |

Conditions: humans

| Compound | fraction absorbed (fa) of approved oral drugs [%] |
| --- | --- |
| CC1(C)CCC(CN2CCN(c3ccc(C(=O)NS(=O)(=O)c4ccc(NCC5CCOCC5)c([N+](=O)[O-])c4)c(Oc4cnc5[nH]ccc5c4)c3)CC2)=C(c2ccc(Cl)cc2)C1 [Venetoclax] | > 65 |
| CO[C@H]1C[C@H](O[C@H]2CC[C@]3(C=O)[C@H]4CC[C@]5(C)[C@@H](C6=CC(=O)OC6)CC[C@]5(O)[C@@H]4CC[C@]3(O)C2)O[C@H](C)[C@H]1O[C@@H]1O[C@H](CO[C@@H]2O[C@H](CO)[C@@H](O)[C@H](O)[C@H]2O)[C@@H](O)[C@H](O)[C@H]1O [k-strophanthoside] | 16 |

Same assay, conditions: oral, humans; compounds without fa values in man, estimate or proposal only

| Compound | estimated / proposed fa |
| --- | --- |
| COC[C@H]1C[C@@H](c2ncc(-c3ccc4c(c3)COc3cc5c(ccc6nc([C@@H]7CC[C@H](C)N7C(=O)[C@@H](NC(=O)OC)C(C)C)[nH]c65)cc3-4)[nH]2)N(C(=O)[C@H](NC(=O)OC)c2ccccc2)C1 [velpatasvir] | 25-30% |
| CC1(C)S[C@@H]2[C@H](NC(=O)[C@H](NC(=O)N3CCN(S(C)(=O)=O)C3=O)c3ccccc3)C(=O)N2[C@H]1C(=O)O [mezlocillin] | zero |
| C=CC[C@@H]1/C=C(\C)C[C@H](C)C[C@H](OC)[C@H]2O[C@@](O)(C(=O)C(=O)N3CCCC[C@H]3C(=O)O[C@H](/C(C)=C/[C@@H]3CC[C@@H](O)[C@H](OC)C3)[C@H](C)[C@@H](O)CC1=O)[C@H](C)C[C@@H]2OC [tacrolimus] | > 15% |

Conditions: assay not specified

| Compound | in vitro permeability (in words) |
| --- | --- |
| C=C1C[C@@]23CC[C@H]4[C@@](C)(CCC[C@@]4(C)C(=O)O[C@@H]4O[C@H](CO)[C@@H](O)[C@H](O)[C@H]4O)[C@@H]2CC[C@]1(O[C@@H]1O[C@H](CO)[C@@H](O)[C@H](O)[C@H]1O[C@@H]1O[C@H](CO)[C@@H](O)[C@H](O)[C@H]1O)C3 [stevioside] | limited permeability |
| NNC(=O)NN1C(=O)c2cc(S(=O)(=O)O)cc3c(N)c(S(=O)(=O)O)cc(c23)C1=O [lucifer yellow CH] | moderate in vitro permeability |
| pasireotide | low in vitro permeability |

Same assay, conditions: not able to quantify in an in vitro permeability assay (≤LOQ)

| Compound | in vitro permeability, not able to quantify |
| --- | --- |
| octreotide | ≤ LOQ |
| CO/N=C(\C(=O)N[C@@H]1C(=O)N2C(C(=O)O)=C(CSc3nc(=O)c(=O)[nH]n3C)CS[C@H]12)c1csc(N)n1 [Ceftriaxone] | ≤ LOQ |
| CC(C)(C)OC(=O)N[C@H]1CCCCC/C=C\[C@@H]2C[C@@]2(C(=O)NS(=O)(=O)C2CC2)NC(=O)[C@@H]2C[C@@H](OC(=O)N3Cc4cccc(F)c4C3)CN2C1=O [danoprevir] | ≤ LOQ |
| dalbavancin | ≤ LOQ |
| CO/N=C(\C(=O)N[C@@H]1C(=O)N2C(C(=O)O)=C(CSc3nc(C)c(CC(=O)O)s3)CS[C@H]12)c1csc(N)n1 [Cefodizime] | ≤ LOQ |
| CC(=O)O[C@H]1C(=O)[C@@]2(C)[C@H]([C@H](OC(=O)c3ccccc3)[C@]3(O)C[C@H](OC(=O)[C@H](O)[C@@H](NC(=O)c4ccccc4)c4ccccc4)C(C)=C1C3(C)C)[C@]1(OC(C)=O)CO[C@@H]1C[C@@H]2O [paclitaxel] | ≤ LOQ |
| Vancomycin | ≤ LOQ |
| CC[C@]1(O)C[C@H]2CN(CCc3c([nH]c4ccccc34)[C@@](C(=O)OC)(c3cc4c(cc3OC)N(C=O)[C@H]3[C@@](O)(C(=O)OC)[C@H](OC(C)=O)[C@]5(CC)C=CCN6CC[C@]43[C@@H]65)C2)C1 [vincristine] | ≤ LOQ |
| Nc1nc(=O)c2c([nH]1)NCC(CNc1ccc(C(=O)N[C@@H](CCC(=O)O)C(=O)O)cc1)N2C=O (mixture of isomers) [Folinic acid] | ≤ LOQ |
| Cc1ccc(C(=O)Nc2ccc(S(=O)(=O)O)c3cc(S(=O)(=O)O)cc(S(=O)(=O)O)c23)cc1NC(=O)c1cccc(NC(=O)Nc2cccc(C(=O)Nc3cc(C(=O)Nc4ccc(S(=O)(=O)O)c5cc(S(=O)(=O)O)cc(S(=O)(=O)O)c45)ccc3C)c2)c1 [suramin] | ≤ LOQ |
| N#C[C@H](O[C@@H]1O[C@H](CO[C@@H]2O[C@H](CO)[C@@H](O)[C@H](O)[C@H]2O)[C@@H](O)[C@H](O)[C@H]1O)c1ccccc1 [Amygdalin] | ≤ LOQ |
| terlipressin | ≤ LOQ |
| COC(=O)N[C@H](C(=O)N1CCC[C@H]1C(=O)Nc1ccc([C@@H]2CC[C@@H](c3ccc(NC(=O)[C@@H]4CCCN4C(=O)[C@@H](NC(=O)OC)C(C)C)cc3)N2c2ccc(C(C)(C)C)cc2)cc1)C(C)C [Ombitasvir] | ≤ LOQ |

Conditions: oral bioavailability in animals, species not stated

| Compound | observed F in animals |
| --- | --- |
| CC(C)c1nc(CN(C)C(=O)N[C@@H](CCN2CCOCC2)C(=O)N[C@H](CC[C@H](Cc2ccccc2)NC(=O)OCc2cncs2)Cc2ccccc2)cs1 [cobicistat] | 11-33% |
| C=C[C@@H]1C[C@]1(NC(=O)[C@@H]1C[C@@H](Oc2cc(-c3csc(NC(=O)C(C)C)n3)nc3c(Br)c(OC)ccc23)CN1C(=O)[C@@H](NC(=O)OC1CCCC1)C(C)(C)C)C(=O)O [faldaprevir] | 26-39% |
